Experimental data: patent publication US7186743B2, “Substituted pyrazolyl compounds for the treatment of inflammation” (Pharmacia Corporation, priority 2001, dated 2007)
pIC50: −log10 of the molar value. Counter-ions that a name gives are not always drawn. Like-named read-outs stand apart in the source and are kept apart here.

Tests used:
IKK2 = biological target: T1, IKK2 (Homo sapiens, UniProt O14920); experiment: IKKβ Resin Enzyme Assay (IKK2 resin); type: biochemical
T1 construct: made in house; host or cells: insect cells (baculovirus, pFastBac; SF9)
T1 sequence (O14920 1-756): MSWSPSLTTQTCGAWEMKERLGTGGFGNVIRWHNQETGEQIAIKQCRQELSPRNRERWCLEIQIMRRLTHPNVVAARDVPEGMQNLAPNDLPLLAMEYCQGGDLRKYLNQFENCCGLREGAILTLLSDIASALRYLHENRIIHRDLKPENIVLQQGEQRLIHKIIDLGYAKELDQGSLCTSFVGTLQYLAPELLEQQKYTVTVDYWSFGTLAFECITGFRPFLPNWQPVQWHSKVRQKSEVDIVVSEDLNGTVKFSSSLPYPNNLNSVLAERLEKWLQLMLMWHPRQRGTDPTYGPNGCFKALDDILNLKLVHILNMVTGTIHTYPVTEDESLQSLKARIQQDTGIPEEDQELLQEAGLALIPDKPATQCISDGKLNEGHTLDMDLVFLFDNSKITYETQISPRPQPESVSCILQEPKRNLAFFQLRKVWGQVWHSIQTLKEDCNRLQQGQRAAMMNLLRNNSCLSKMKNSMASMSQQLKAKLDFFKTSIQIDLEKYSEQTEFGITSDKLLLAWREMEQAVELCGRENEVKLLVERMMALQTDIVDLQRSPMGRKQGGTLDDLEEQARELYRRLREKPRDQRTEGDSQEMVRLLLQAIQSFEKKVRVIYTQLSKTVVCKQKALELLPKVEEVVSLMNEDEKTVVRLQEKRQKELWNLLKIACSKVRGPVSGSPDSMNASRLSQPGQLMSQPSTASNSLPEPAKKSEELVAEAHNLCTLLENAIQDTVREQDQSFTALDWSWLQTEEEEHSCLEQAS
Summary of the method: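 Enzyme: human IKK2 with a C-terminal FLAG tag, baculovirus-expressed, purified as homodimer on anti-FLAG resin. It phosphorylates a biotinylated IκBα peptide with 1 μM ATP plus [γ-33P]ATP in 25 mM Hepes pH 7.6, Mg/Mn, for 30 min at 25° C. Incorporation is counted by scintillation after anion-exchange resin stop.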

[1] = Table 5, read-out: IKK2 Resin Avg. IC50
[2] = Table 7, read-out: IKK2 Resin IC50

| Structure (SMILES) | pIC50 (IKK2; [1]) | melting point | pIC50 (IKK2; [2]) | pIC50 (IKK2; Table 4, read-out: IKK2 Resin IC50) |
| --- | --- | --- | --- | --- |
| NC(=O)c1nn(-c2ccc3c(c2)OCO3)c2c1CCc1ccc(NC(=O)c3nc(N4CCOCC4)ccc3Cl)cc1-2 [Example 219, 1-(1,3-benzodioxol-5-yl)-8-{[(3-chloro-6-morpholin-4-ylpyridin-2-yl)carbonyl]amino}-4,5-dihydro-1H-benzo[g]indazole-3-carboxamide] | ≥ 6.00 | 260 to 262 °C (dec.) | – | – |
| CNc1ncccc1C(=O)Nc1ccc2c(c1)-c1c(c(C(N)=O)nn1-c1ccc3c(c1)OCO3)CC2 [Example 207, 1-(1,3-benzodioxol-5-yl)-8-({[2-(methylamino)pyridin-3-yl]carbonyl}amino)-4,5-dihydro-1H-benzo[g]indazole-3-carboxamide] | ≥ 6.00 | 273 to 275 °C | – | – |
| CN1CCN(c2cc(C(=O)Nc3ccc4c(c3)-c3c(c(C(N)=O)nn3-c3ccc(F)cc3)CC4)ccn2)CC1 [Example 251, 1-(4-fluorophenyl)-8-{[2-(4-methylpiperazin-1-yl)isonicotinoyl]amino}-4,5-dihydro-1H-benzo[g]indazole-3-carboxamide] | – | 277 to 279 °C | ≥ 6.00 | – |
| NC(=O)c1nn(-c2ccc3c(c2)OCO3)c2c1CCc1ccc(NC(=O)c3cccnc3Cl)cc1-2 [Example 161, 1-(1,3-benzodioxol-5-yl)-8-{[(2-chloropyridin-3-yl)carbonyl]amino}-4,5-dihydro-1H-benzo[g]indazole-3-carboxamide] | – | 165 to 166 °C | – | ≥ 6.00 |
| NC(=O)c1nn(-c2ccc(F)cc2)c2c1CCc1ccc(NC(=O)c3cccnc3N3CCNCC3)cc1-2 [Example 245, 1-(4-fluorophenyl)-8-{[(2-piperazin-1-ylpyridin-3-yl)carbonyl]amino}-4,5-dihydro-1H-benzo[g]indazole-3-carboxamide] | – | 156 to 157 °C | ≥ 6.00 | – |
| Cc1cc(Cl)ncc1C(=O)Nc1ccc2c(c1)-c1c(c(C(N)=O)nn1-c1ccc(F)cc1)CC2 [Example 246, 8-{[(6-chloro-4-methylpyridin-3-yl)carbonyl]amino}-1-(4-fluorophenyl)-4,5-dihydro-1H-benzo[g]indazole-3-carboxamide] | – | 280 to 284 °C | ≥ 6.00 | – |
| NC(=O)c1nn(-c2ccc(F)cc2)c2c1CCc1ccc(NC(=O)c3cc(N4CCOCC4)ncc3Cl)cc1-2 [Example 249, 8-[(5-chloro-2-morpholin-4-ylisonicotinoyl)amino]-1-(4-fluorophenyl)-4,5-dihydro-1H-benzo[g]indazole-3-carboxamide] | – | 309 to 313 °C | ≥ 6.00 | – |
| NC(=O)c1nn(-c2ccc(F)cc2)c2c1CCc1ccc(NC(=O)c3nc(N4CCOCC4)ccc3Cl)cc1-2 [Example 255, 8-{[(3-chloro-6-morpholin-4-ylpyridin-2-yl)carbonyl]amino}-1-(4-fluorophenyl)-4,5-dihydro-1H-benzo[g]indazole-3-carboxamide] | – | 252 to 254 °C | ≥ 6.00 | – |
| CN1CCN(c2cc(C(=O)Nc3ccc4c(c3)-c3c(c(C(N)=O)nn3-c3ccc5c(c3)OCO5)CC4)c(Cl)cn2)CC1 [Example 214, 1-(1,3-benzodioxol-5-yl)-8-{[5-chloro-2-(4-methylpiperazin-1-yl)isonicotinoyl]amino}-4,5-dihydro-1H-benzo[g]indazole-3-carboxamide] | – | 305 to 307 °C | – | – |
| NC(=O)c1nn(-c2ccc3c(c2)OCO3)c2c1CCc1ccc(NC(=O)c3cccnc3NCCO)cc1-2 [Example 208, 1-(1,3-benzodioxol-5-yl)-8-[({2-[(2-hydroxyethyl)amino]pyridin-3-yl}carbonyl)amino]-4,5-dihydro-1H-benzo[g]indazole-3-carboxamide] | ≥ 6.00 | 250 to 253 °C | – | – |
| CN1CCN(c2ccc(Cl)c(C(=O)Nc3ccc4c(c3)-c3c(c(C(N)=O)nn3-c3ccc5c(c3)OCO5)CC4)n2)CC1 (as salt: salt) [Example 217, 1-(1,3-benzodioxol-5-yl)-8-({[3-chloro-6-(4-methylpiperazin-1-yl)pyridin-2-yl]carbonyl}amino)-4,5-dihydro-1H-benzo[g]indazole-3-carboxamide] | – | 264 to 266 °C (dec.) | – | – |
| CNc1ccc(Cl)c(C(=O)Nc2ccc3c(c2)-c2c(c(C(N)=O)nn2-c2ccc4c(c2)OCO4)CC3)n1 [Example 220, 1-(1,3-benzodioxol-5-yl)-8-({[3-chloro-6-(methylamino)pyridin-2-yl]carbonyl}amino)-4,5-dihydro-1H-benzo[g]indazole-3-carboxamide] | ≥ 6.00 | 269 to 270 °C (dec.) | – | – |
| Cc1cc(N2CCOCC2)ncc1C(=O)Nc1ccc2c(c1)-c1c(c(C(N)=O)nn1-c1ccc(F)cc1)CC2 [Example 247, 1-(4-fluorophenyl)-8-{[(4-methyl-6-morpholin-4-ylpyridin-3-yl)carbonyl]amino}-4,5-dihydro-1H-benzo[g]indazole-3-carboxamide] | – | 301 °C (dec.) | ≥ 6.00 | – |
| NC(=O)c1nn(-c2ccc3c(c2)OCO3)c2c1CCc1ccc(NC(=O)c3cc(Cl)ncc3Cl)cc1-2 [Example 211, 1-(1,3-benzodioxol-5-yl)-8-[(2,5-dichloroisonicotinoyl)amino]-4,5-dihydro-1H-benzo[g]indazole-3-carboxamide] | – | 292 to 293 °C | – | – |
| CN1CCN(c2ccc(Cl)c(C(=O)Nc3ccc4c(c3)-c3c(c(C(N)=O)nn3-c3ccc(F)cc3)CC4)n2)CC1 (as salt: salt) [Example 256, 8-({[3-chloro-6-(4-methylpiperazin-1-yl)pyridin-2-yl]carbonyl}amino)-1-(4-fluorophenyl)-4,5-dihydro-1H-benzo[g]indazole-3-carboxamide] | – | 218 to 220 °C | – | – |
| NC(=O)c1nn(-c2ccc3c(c2)OCO3)c2c1CCc1ccc(NC(=O)c3cc(N4CCOCC4)ncc3Cl)cc1-2 [Example 212, 1-(1,3-benzodioxol-5-yl)-8-[(5-chloro-2-morpholin-4-ylisonicotinoyl)amino]-4,5-dihydro-1H-benzo[g]indazole-3-carboxamide] | ≥ 6.00 | 269 to 271 °C | – | – |
| NC(=O)c1nn(-c2ccc3c(c2)OCO3)c2c1CCc1ccc(NC(=O)c3nc(Cl)ccc3Cl)cc1-2 [Example 216, 1-(1,3-benzodioxol-5-yl)-8-{[(3,6-dichloropyridin-2-yl)carbonyl]amino}-4,5-dihydro-1H-benzo[g]indazole-3-carboxamide] | – | 263 to 265 °C | – | – |
